Experimental data taken from ChEMBL document CHEMBL4184122, “Chebulinic acid attenuates glutamate-induced HT22 cell death by inhibiting oxidative stress, calcium influx and MAPKs phosphorylation” (2018).
Active and inactive are the calls of the source. No cut-off for these calls is given here.

Test system: HT-22
Experiment: Neuroprotective activity against glutamate induced cell death in mouse HT22 cells assessed as increase in cell viability at 1 to 5 uM after 24 hrs by MTT assay
Format: functional, cell-based

CC(=O)N[C@@H](CS)C(=O)O was tested, and the Activity was “Active”.
